In publication PMC3894558, “Chemical signatures and new drug targets for gametocytocidal drug development” (Scientific Reports, 2014):
Counter-ions that a name gives are not always drawn. Like-named read-outs stand apart in the source and are kept apart here.

Experiments:
[1] = test system: P. falciparum 3D7 gametocytes; test: alamarBlue gametocyte viability assay, strain 3D7; type: cell-based, Plasmodium falciparum; details: for Max Resp: DMSO set at 0%, 100 nM epoxomicin set at -100%
[2] = test system: P. falciparum HB3 gametocytes; test: alamarBlue gametocyte viability assay, strain HB3; type: cell-based, Plasmodium falciparum
Protocol: (§1) Briefly, gametocyte cultures were set up at 0.1% parasitemia and on days 9–10 treated with 50 mM N-acetylglucosamine (NAG) to block further asexual growth. Stage III–V gametocytes were isolated by Percoll density gradient centrifugation on day 12 and returned to culture for 24 hrs before being used in the assay[9].
(§2) Briefly, 2.5 μl/well incomplete medium was dispensed into each well of 1,536-well plates using the Multidrop Combi followed by 23 nl compound transferring using the NX-TR Pintool (WAKO Scientific Solutions, San Diego, CA). Then, 2.5 μl/well of gametocytes was dispensed with a seeding density of 20,000 cells/well using the Multidrop Combi. The assay plates were incubated for 72 hrs at 37°C with 5% CO2.

[3] = test system: P. falciparum Dd2 gametocytes; test: alamarBlue gametocyte viability assay, strain Dd2; type: cell-based, Plasmodium falciparum
Protocol: as §1, §2

HepG2 cells = test: cells; details: Homo sapiens; for Emax: HepG2, read-out: % Max response; for IC50: HepG2, read-out: IC50 in HepG2 cells
Description: Growth medium was made with Dulbecco's Modified Eagle Medium with 10% fetal bovine serum (FBS).

[4] = Plasmodium falciparum, 3D7, strain profiling, 11 concentrations, 1:3 dilution, three times, read-out: 3D7-gametocytes IC50
[5] = Plasmodium falciparum, HB3, strain profiling, 11 concentrations, 1:3 dilution, three times, read-out: HB3-gametocytes IC50
[6] = Plasmodium falciparum, DD2, strain profiling, 11 concentrations, 1:3 dilution, three times, read-out: Dd2-gametocytes IC50
[7] = Plasmodium falciparum, HB3, read-out: HB3-gametocytes IC50
[8] = Plasmodium falciparum, DD2, read-out: Dd2-gametocytes IC50
[9] = strain profiling, 11 concentrations, 1:3 dilution, three times, read-out: 3D7-gametocytes IC50
[10] = strain profiling, 11 concentrations, 1:3 dilution, three times, read-out: HB3-gametocytes IC50
[11] = strain profiling, 11 concentrations, 1:3 dilution, three times, read-out: Dd2-gametocytes IC50
[12] = Plasmodium falciparum, 3D7, P. falciparum 3D7 gametocytes, mean of at least 3 independent experiments, read-out: Gametocyte IC50
[13] = Plasmodium falciparum, P. falciparum 3D7 gametocytes, mean of at least 3 independent experiments, read-out: Gametocyte IC50
[14] = Malaria Box, stages III-V 3D7 gametocytes
[15] = Malaria Box, stages III-V 3D7 gametocytes, 11 concentrations, 1:3 dilution, read-out: IC50

| Molecule | IC50 [1, 4] [µM] | IC50 [2, 5] [µM] | IC50 [3, 6] [µM] | IC50 [1, 12] [µM] | Emax (HepG2 cells) [%] | IC50 (HepG2 cells) [µM] | other results |
| --- | --- | --- | --- | --- | --- | --- | --- |
| CCN(CC)C(=S)SSC(=S)N(CC)CC [Disulfiram] | 0.096 | 0.108 | 0.096 |  |  |  |  |
| CCN(CC)Cc1nccn1-c1ccc([N+](=O)[O-])cc1C(=O)c1ccccc1Cl [Nizofenone] | 23.5 |  |  |  |  |  | IC50 [2, 7]: 14.8 µM; IC50 [3, 8]: 16.6 µM |
| Cl.Cl.Cl.Cl.Cl.Cl.N.N.N.N.N.N.N.N.N.N.N.N.N.N.[O-2].[O-2].[Ru+3].[Ru+3].[Ru+4] [Ruthenium red] |  |  |  |  |  |  | IC50 [1, 9]: 0.935 µM; IC50 [2, 10]: 0.264 µM; IC50 [3, 11]: 0.526 µM |
| COc1ccc(C[C@H](N)C(=O)N[C@H]2[C@@H](O)[C@H](n3cnc4c(N(C)C)ncnc43)O[C@@H]2CO)cc1 [Puromycin] |  | 1.48 | 2.64 | 1.05 | -71 | 11.8 |  |
| Cc1cc(NC2CCCCC2)nc(-n2nc(C)cc2C)n1 [CyPPA] |  |  |  |  |  |  | IC50 [1, 9]: 0.469 µM; IC50 [2, 10]: 0.743 µM; IC50 [3, 11]: 0.59 µM |
| CCNC(=O)c1noc(-c2cc(C(C)C)c(O)cc2O)c1-c1ccc(CN2CCOCC2)cc1 [NVP-AUY922] |  | 0.042 | 0.047 | 0.047 | -88 | 0.148 |  |
| CO[C@H]1/C=C\C=C(/C)C(=O)NC2=CC(=O)C(NCCN(C)C)=C(C[C@@H](C)C[C@H](OC)[C@H](O)[C@@H](C)/C=C(\C)[C@@H]1OC(N)=O)C2=O [Alvespimycin] |  | 0.235 |  | 0.074 | -94 | 0.118 | IC50 [3, 8]: 0.094 µM |
| CC(C)C[C@H](NC(=O)[C@H](Cc1ccccc1)NC(=O)c1cnccn1)B(O)O [Bortezomib] |  | 0.074 | 0.094 | 0.118 | -82 | 0.148 |  |
| CO[C@@H]1[C@@H](OC)[C@H](C)[C@@](O)(CC(=O)O)O[C@H]1[C@H](C)[C@H]1O[C@@]2(CC[C@@](C)([C@H]3CC[C@@](C)([C@@H]4O[C@@H]([C@H]5O[C@](C)(O)[C@H](C)C[C@@H]5C)C[C@@H]4O[C@@H]4C[C@H](OC)[C@@H](OC)[C@H](C)O4)O3)O2)C[C@H](O)[C@H]1C [Maduramicin ammonium] | 0.024 | 0.012 | 0.037 |  |  |  |  |
| C/C=C1\NC(=O)[C@H]2CSSCC/C=C/[C@H](CC(=O)N[C@H](C(C)C)C(=O)N2)OC(=O)[C@H](C(C)C)NC1=O [Romidepsin] | 0.264 |  |  |  | -98 | 0.074 | IC50 [1, 13]: 0.637 µM; IC50 [2, 7]: 0.148 µM; IC50 [3, 8]: 0.187 µM |
| [O-][n+]1ccccc1SSc1cccc[n+]1[O-] [Dipyrithione] |  | 0.743 |  | 0.263 | -93 | 10.8 | IC50 [3, 8]: 0.59 µM |
| CC1=C(CO)C(=O)O[C@@H]([C@@H](C)[C@H]2CC[C@H]3[C@@H]4C[C@H]5O[C@]56[C@@H](O)C=CC(=O)[C@]6(C)[C@H]4CC[C@]23C)C1 [Withaferin A] |  | 1.33 | 0.372 | 0.372 | -80 | 9.35 |  |
| COc1ccc2nc3cc(Cl)ccc3c(Nc3cc(CN4CCCC4)c(O)c(CN4CCCC4)c3)c2n1 [Pyronaridine] | 1.87 | 2.64 | 6.62 |  |  |  |  |
| OC(c1cc(C(F)(F)F)nc2c(C(F)(F)F)cccc12)C1CCCCN1 (centres unmarked) [Mefloquine] |  |  |  | 0.833 | -97 | 29.6 |  |
| CC[C@@H](C(=O)[C@@H](C)[C@@H](O)[C@H](C)[C@@H]1O[C@@H]([C@@H](CC)C(=O)O)CC[C@@H]1C)[C@H]1O[C@]2(C=C[C@@H](O)[C@]3(CC[C@@](C)([C@H]4CC[C@](O)(CC)[C@H](C)O4)O3)O2)[C@H](C)C[C@@H]1C [Salinomycin sodium] | 0.118 |  |  |  | -69 | 29.6 | IC50 [1, 13]: 0.194 µM; IC50 [2, 7]: 0.372 µM; IC50 [3, 8]: 0.296 µM |
| c1cnc2c(c1)ccc1cccnc12 [1,10-Phenanthroline] |  | 1.18 | 1.32 |  |  |  | IC50 ([1]; Plasmodium falciparum, 3D7, read-out: 3D7-gametocytes IC50, strain profiling, 11 concentrations, 1:3 dilution, three times): 0.743 µM |
| CO[C@@H]1[C@@H](OC)[C@H](C)[C@@](O)(CC(=O)O)O[C@H]1[C@H](C)[C@H]1O[C@@]2(CC[C@@](C)([C@H]3CC[C@@](C)([C@@H]4O[C@@H]([C@H]5O[C@](C)(O)[C@H](C)C[C@@H]5C)C[C@@H]4O[C@@H]4C[C@H](OC)[C@@H](OC)[C@H](C)O4)O3)O2)C[C@H](O)[C@H]1C [Maduramicin] |  |  |  | 0.047 | -42 | 37.2 |  |
| COC(=O)C[C@](O)(CCCC(C)(C)O)C(=O)O[C@@H]1C(OC)=C[C@]23CCCN2CCc2cc4c(cc2[C@H]13)OCO4 [Omacetaxine mepesuccinate] | 0.059 | 0.017 | 0.037 |  |  |  |  |
| CC(C)C[C@H](NC(=O)[C@H](CCc1ccccc1)NC(=O)CN1CCOCC1)C(=O)N[C@@H](Cc1ccccc1)C(=O)N[C@@H](CC(C)C)C(=O)[C@@]1(C)CO1 [Carfilzomib] | 0.004 | 0.003 | 0.002 | 0.012 | -79 | 1.18 |  |
| c1ccc2c(c1)[I+]c1ccccc1-2 [Diphenyleneiodonium] | 0.132 | 0.296 |  |  |  |  | IC50 [3, 8]: 0.209 µM |
| CCN(CC)C(=S)SSC(=S)N(CC)CC [Tetraethylthiuram disulfide] |  |  |  |  |  |  | IC50 [1, 9]: 0.096 µM; IC50 [2, 10]: 0.148 µM; IC50 [3, 11]: 0.296 µM |
| CNc1ccc2oc(C[C@H]3O[C@@]4(CC[C@H]3C)O[C@H]([C@H](C)C(=O)c3ccc[nH]3)[C@H](C)C[C@H]4C)nc2c1C(=O)O [Calcimycin] | 2.64 |  |  |  |  |  | IC50 [2, 7]: 5.9 µM; IC50 [3, 8]: 1.66 µM |
| C#Cc1cccc(Nc2ncnc3cc(OC)c(OCCCCCCC(=O)NO)cc23)c1 [CUDC-101] |  | 0.152 | 0.429 | 0.833 | -76 | 6.79 | fold more potent against HB3 compared to 3D7 gametocytes [2]: 5.5 fold |
| Cc1[nH]c2ccccc2c1CCNCc1ccc(/C=C/C(=O)NO)cc1 [Panobinostat] |  | 0.148 | 0.118 | 0.935 | -74 | 0.372 |  |
| Salinomycin monosodium |  |  |  |  |  |  | IC50 [1, 9]: 0.194 µM; IC50 [2, 10]: 0.469 µM; IC50 [3, 11]: 0.296 µM |
| CC[C@@H](C(=O)O)[C@@H]1O[C@@H]([C@@H](C)[C@H](O)[C@H](C)C(=O)[C@H](CC)[C@H]2O[C@]3(C=C[C@@H](O)[C@]4(CC[C@@](C)([C@H]5CC[C@](O)(CC)[C@H](C)O5)O4)O3)[C@H](C)C[C@@H]2C)[C@@H](C)C[C@@H]1C [Narasin] |  | 0.136 |  | 0.05 | -98 | 27 | IC50 [3, 8]: 0.076 µM |
| OC(c1cc(C(F)(F)F)nc2c(C(F)(F)F)cccc12)C1CCCCN1 (centres unmarked) [Mefloquine hydrochloride] | 0.074 | 0.059 | 0.053 |  |  |  |  |
| COc1cc(NC(C)CCCN)c2ncccc2c1 (centres unmarked) [Primaquine] |  |  |  |  |  | 17.8 | IC50 ([2]; read-out: HB3-gametocytes IC50, strain profiling, 11 concentrations, 1:3 dilution, three times, listed as PQ): 0.68 µM; IC50 ([3]; Plasmodium falciparum, DD2, read-out: Dd2-gametocytes IC50, strain profiling, 11 concentrations, 1:3 dilution, three times): 1.08 µM; IC50 ([3]; read-out: Dd2-gametocytes IC50, strain profiling, 11 concentrations, 1:3 dilution, three times, listed as PQ): 1.08 µM |
| c1ccc2c(NCCc3c[nH]c4ccccc34)c3ccccc3nc2c1 [MMV006513] |  |  |  |  |  |  | Max Resp ([1]; Malaria Box): -85%; Curve Class [1, 14]: -2.1; IC50 [1, 15]: 16.6 µM |
| Cl.Clc1cc(Br)ccc1-c1ccc(CNCC2CCNCC2)o1 [MMV019918] |  |  |  |  |  |  | Max Resp ([1]; Malaria Box): -106%; Curve Class [1, 14]: -1.1; IC50 [1, 15]: 1.87 µM |
